Here are results for two compounds from patent US20240207414A1, “DISULFIDE-BASED PRODRUG COMPOUND” (Ludwig-Maximilians-Universitat Munchen, priority 2021, published 2024).

Assay [1] deals with T1, GR/GSH/Grx (glutaredoxin 2, Grx2) (Homo sapiens, UniProt Q9NS18).
T1 sequence (Q9NS18 20-164): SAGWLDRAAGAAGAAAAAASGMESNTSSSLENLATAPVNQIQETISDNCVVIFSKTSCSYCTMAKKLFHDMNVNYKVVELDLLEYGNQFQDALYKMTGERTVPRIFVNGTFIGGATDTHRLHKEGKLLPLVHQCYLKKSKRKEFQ
Nature of the assay: Enzymatic activation assay: GR/GSH/Grx2. It counts as biochemical. As to conditions: full mixture NADPH/GR/GSH/Grx2. From the text: (§1) This assay (see FIG. 2) examined the resistance of disulfide-based reduction-triggered compounds to the major cellular enzymatic systems that maintain redox homeostasis and are capable of reducing disulfides, evaluated in a cell-free assay, to see if these compounds can be useful for selective enzyme-triggered release.
(§2) Assay conditions: A black 96-well plate with black bottom was charged with solutions of fluorophore-releasing reduction-triggered probes that are compounds of the invention (P1, P2) or that are not compounds of the invention and reveal the performance of prior art systems (X19) (50 μL; 40 μM in aq. TE buffer (pH 7.4) and 4 μL DMSO). […]
(§3) Data Representation: (F(t)-F^NADPH(t)) is the fluorescence intensity of the test solution at time t, from which is subtracted a background fluorescence level also at time t from a solution with NADPH (which itself is fluorescent, and is present in 10-fold higher concentration than the probe) and with the same protein mixture but without the probe. F^max(t) is the maximum possible fluorescence intensity value at time t, determined by incubation with TCEP (100 μM)) similarly as for the chemical reductant assay. (F(t)−F^NADPH(t))/F^max(t) thus gives the timecourse of fluorescence signal, as a fraction of the maximum possible fluorescence signal. […]

Assay [2] has as its target T2, thioredoxin 2 (Trx2) (Homo sapiens, UniProt Q99757).
T2 sequence (Q99757 60-166): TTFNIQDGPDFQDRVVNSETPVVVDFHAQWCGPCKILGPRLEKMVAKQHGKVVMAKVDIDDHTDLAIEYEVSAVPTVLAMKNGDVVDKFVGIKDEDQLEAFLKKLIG
Nature of the assay: Enzymatic activation assay: NADPH/TrxR/Trx2 system. It counts as biochemical. Particulars: NADPH/TrxR plus Trx2, 37° C., 6 h.
From the text: as §1, §2, §3

A short description of assay [3]: Chemical reductant assay: DTT challenge (cell-free). It counts as physicochemical. As to conditions: aq. TE buffer pH 7.4, 37° C., 6 h. From the text:
This assay (see FIG. 1) examined the stability of disulfide-based reduction-triggered compounds of the invention when exposed to monothiol reductants, primarily the major physiological cellular monothiol GSH, and dithiol reductants like the disulfide reductant dithiothreitol (DTT), as evaluated in a cell-free assay, to determine whether these compounds can be useful for selective release.
Assay Conditions: A black 96-well plate with black bottom was charged with solutions of fluorophore-releasing reduction-triggered probes that are compounds of the invention (P1, P2, P3, P4 and P5) or that are not compounds of the invention and reveal the performance of prior art systems (X19) (80 μL; 25 μM in aq. TE buffer (pH 7.4) and 1.25% vol DMSO). Solutions of challenge species chosen from the monothiol glutathione (GSH, 0.1-50 mM) and the dithiol reductant dithiothreitol (DTT, 0.1-50 mM) or phosphine reductant tris-(2-carboxyethyl) phosphine (TCEP); (20 μL; 1 mM in aq. TE buffer (pH 7.4) were added and the reaction mixtures were incubated at 37° C. for 6 h while measuring fluorescence intensity over time [F(t)] using a BMG Labtech FLUOstar Omega platereader (λexc=355 nm, Δem=530 nm for PQ-OH-releasing probes X19, P1 and P2; Δexc=485 nm, Δem=530 nm for MF-OH-releasing probes P3 and P4.
Data Representation: F^max is the maximum possible fluorescence increase corresponding to complete reduction-triggered cargo release, i.e. the fluorescence intensity increase from time zero to signal plateau under TCEP incubation PQ-OH-releasing probes. F(t)/F^max(t) thus gives the timecourse measurements of fluorescence intensity, as a fraction of the maximum possible fluorescence signal. F^sat is the endpoint fluorescence intensity increase for each condition, ie. F^sat=(F(6 h)). F^sat/F^max thus gives the assay endpoint fluorescence intensity increase, as a fraction of the maximum possible fluorescence signal. In the GSH timecourse measurements shown in FIG. 1, all datasets annotated with concentrations only (0.01-10 mM) refer to GSH challenges, while datasets for TCEP positive control (100 μM) and no-reductant control (blank) are shown for comparison. The dose-response plots show F^sat/F^max for the different ratios between probe and GSH or probe and DTT concentrations, with a logarithmic horizontal scale.

The target in assay [4] is thioredoxin reductase 2 (TrxR2) (Homo sapiens, UniProt Q9NNW7). Nature of the assay: Enzymatic activation assay: NADPH/TrxR2 without Trx. It counts as biochemical. Particulars: NADPH/TrxR2, no Trx added, 37° C., 6 h.
Chain of thioredoxin reductase 2 (TrxR2) (Q9NNW7 37-524): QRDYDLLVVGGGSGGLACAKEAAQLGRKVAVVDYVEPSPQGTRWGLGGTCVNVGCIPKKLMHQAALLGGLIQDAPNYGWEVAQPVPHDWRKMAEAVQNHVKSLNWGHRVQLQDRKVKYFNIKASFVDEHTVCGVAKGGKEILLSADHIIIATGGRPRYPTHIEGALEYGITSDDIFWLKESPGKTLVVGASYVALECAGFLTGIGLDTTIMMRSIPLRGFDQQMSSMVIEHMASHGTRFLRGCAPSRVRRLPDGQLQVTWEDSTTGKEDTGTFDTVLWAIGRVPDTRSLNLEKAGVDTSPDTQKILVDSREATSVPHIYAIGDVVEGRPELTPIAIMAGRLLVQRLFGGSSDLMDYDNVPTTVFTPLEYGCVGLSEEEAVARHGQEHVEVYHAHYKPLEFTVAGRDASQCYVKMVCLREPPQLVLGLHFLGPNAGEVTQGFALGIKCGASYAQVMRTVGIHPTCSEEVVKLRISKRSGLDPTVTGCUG
From the text: as §1, §2, §3

Regarding `O=C(Oc1ccc(Cl)cc1-c1nc2ccc(Cl)cc2c(=O)[nH]1)N1CCC[C@@H]2CSSC[C@H]21` (racemic) [Compound P1, 4-chloro-2-(6-chloro-4-oxo-3,4-dihydroquinazolin-2-yl)phenyl-(trans)-hexahydro-[1,2]dithiino[4,5-b]pyridine-1(2H)-carboxylate], the “cargo release / processing by GR/GSH/Grx2” value in assay [1] was “only processed by high levels of Grx1 and Grx2”. For the same compound, in assay [2], the “cargo release / processing by TrxR plus Trx2” value is “processed when additional high levels of Trx1 and Trx2 are added”. Also, in assay [3], the “activation / cargo release by dithiol reductant DTT” value is “efficiently activated by dithiol-type reductants”. Further, in assay [4], the “cargo release / processing by TrxR2” value was “not processed”.

For `O=C(Oc1ccc(Cl)cc1-c1nc2ccc(Cl)cc2c(=O)[nH]1)N1CCC[C@@H]2CSSC[C@@H]21` (racemic) [Compound P2, 4-chloro-2-(6-chloro-4-oxo-3,4-dihydroquinazolin-2-yl)phenyl-(cis)-hexahydro-[1,2]dithiino[4,5-b]pyridine-1(2H)-carboxylate], in assay [1], the “cargo release / processing by GR/GSH/Grx2” value was “only processed by high levels of Grx1 and Grx2”. In addition, in assay [2], the “cargo release / processing by TrxR plus Trx2” value is “processed when additional high levels of Trx1 and Trx2 are added”. In assay [3], the “activation / cargo release by dithiol reductant DTT” value was “efficiently activated by dithiol-type reductants”. Further, the “cargo release / processing by TrxR2” value in assay [4] is “not processed”.
